We go through 3 compounds from ChEMBL document CHEMBL1126565, “Three-dimensional QSAR of human immunodeficiency virus (I) protease inhibitors. 1. A CoMFA study employing experimentally-determined alignment rules” (J Med Chem, 1993).

Non-standard residues stand in square brackets, D forms with d. Residues, ends and D or L forms follow the SMILES beside them. Sta = CC(C)C[C@H](N)[C@@H](O)CC(=O)O

A word on the IC50: it is the concentration needed to halve the response being measured. A low value points to greater potency.

The assay has as its target Human immunodeficiency virus type 1 protease (Human immunodeficiency virus 1, UniProt Q72874). The assay is described as follows: Inhibitory potency against HIV-1 protease.
As for `COC(=O)[C@@H](NC(=O)[C@H](CC(C)C)NC(=O)[C@@H]1CCCN1C[C@@H](O)[C@H](Cc1ccccc1)NC(=O)[C@H](CC(N)=O)NC(=O)OC(C)(C)C)C(C)C`, it took 16 nM to reach half-maximal inhibition (IC50).

`CC(C)(C)OC(=O)N[C@@H](CC(N)=O)C(=O)N[C@@H](Cc1ccccc1)C(O)C[C@@H](Cc1ccccc1)C(=O)N[C@H]1c2ccccc2C[C@H]1O` (stereo partly drawn) gave an IC50 of 295 nM. This IC50 lies about 18-fold higher than the previous one.

`CC[C@H](C)[C@H](N)C(=O)N[C@@H](CCC(N)=O)C(=O)N[C@@H](CC(C)C)[C@@H](O)CC(=O)N[C@@H](CC(N)=O)C(=O)N[C@@H](Cc1ccccc1)C(=O)N[C@@H](CO)C(=O)O` (H-IQ[Sta]NFS-OH) gave an IC50 of 12000 nM.
